# Where two headings read alike, the source gives them in different places.
# What was measured:
# primary human T-cells [1] = system: primary human T-cells
# primary human T-cells [2] = experiment: Proliferation assay after 5 days (CellTiter-Glo, CD3 stimulation; PBS counter screen); format: cell-based; details: Homo sapiens, T-cell, 120 h, CD3 stimulation; for Emax: 5 days, normalized to reference compound A1 as stimulator control = 100%, DMSO neutral control, read-out: Emax proliferation (% activation); for EC50: primary human T-cells, CellTiter-Glo after 5 days, EC50 of fitted sigmoidal curve, read-out: Tcell Proliferation CD3 EC50
# Method in brief: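 Proliferation is measured 5 days post-treatment as ATP-dependent luminescence. Flags mark compounds that activated unstimulated cells or harmed viability.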
smiles,measurement,setting,value
"N[C@H]1CS(=O)(=O)c2cc(F)c(-c3nnc(C(=O)N4[C@@H]5CCC[C@H]4CC5)o3)cc2N(Cc2ccc(Cl)cc2)C1=O [Example 96, (3R)-3-amino-5-[(4-chlorophenyl)methyl]-8-fluoro-1,1-dioxo-7-[5-[(1R,5S)-8-azabicyclo[3.2.1]octane-8-carbonyl]-1,3,4-oxadiazol-2-yl]-2,3-dihydro-1λ^6,5-benzothiazepin-4-one]",EC50,primary human T-cells [1],604 nM
same,Emax,primary human T-cells [2],46%
same,EC50,primary human T-cells [2],> 2730 nM
"N[C@H]1CS(=O)(=O)c2cc(F)c(-c3nnc(-c4ccccc4)o3)cc2N(Cc2ccc(Cl)cc2)C1=O [Example 97, (3R)-3-amino-5-[(4-chlorophenyl)methyl]-8-fluoro-1,1-dioxo-7-(5-phenyl-1,3,4-oxadiazol-2-yl)-2,3-dihydro-1λ^6,5-benzothiazepin-4-one]",EC50,primary human T-cells [1],1040 nM
same,Emax,primary human T-cells [2],115%
same,EC50,primary human T-cells [2],520 nM
"Cc1ccccc1-c1nnc(-c2cc3c(cc2F)S(=O)(=O)C[C@H](N)C(=O)N3Cc2ccc(Cl)cc2)o1 [Example 98, (3R)-3-amino-5-[(4-chlorophenyl)methyl]-8-fluoro-7-[5-(o-tolyl)-1,3,4-oxadiazol-2-yl]-1,1-dioxo-2,3-dihydro-1λ^6,5-benzothiazepin-4-one]",EC50,primary human T-cells [1],71.2 nM
same,Emax,primary human T-cells [2],112%
same,EC50,primary human T-cells [2],64.6 nM
"N[C@H]1CS(=O)(=O)c2cc(F)c(-c3nnc(-c4ccc(F)cc4)o3)cc2N(Cc2ccc(Cl)cc2)C1=O [Example 99, (3R)-3-amino-5-[(4-chlorophenyl)methyl]-8-fluoro-7-[5-(4-fluorophenyl)-1,3,4-oxadiazol-2-yl]-1,1-dioxo-2,3-dihydro-1λ^6,5-benzothiazepin-4-one]",EC50,primary human T-cells [1],105 nM
same,Emax,primary human T-cells [2],112%
same,EC50,primary human T-cells [2],82.2 nM
"Cc1cccc(F)c1-c1nnc(-c2cc3c(cc2F)S(=O)(=O)C[C@H](N)C(=O)N3Cc2ccc(Cl)cc2)o1 [Example 100, (3R)-3-amino-5-[(4-chlorophenyl)methyl]-8-fluoro-7-[5-(2-fluoro-6-methyl-phenyl)-1,3,4-oxadiazol-2-yl]-1,1-dioxo-2,3-dihydro-1λ^6,5-benzothiazepin-4-one]",EC50,primary human T-cells [1],484 nM
same,Emax,primary human T-cells [2],89%
same,EC50,primary human T-cells [2],49.6 nM
"CC(C)Cc1nnc(-c2cc3c(cc2F)S(=O)(=O)C[C@H](N)C(=O)N3Cc2ccc(Cl)cc2)o1 [Example 101, (3R)-3-amino-5-[(4-chlorophenyl)methyl]-8-fluoro-7-(5-isobutyl-1,3,4-oxadiazol-2-yl)-1,1-dioxo-2,3-dihydro-1λ^6,5-benzothiazepin-4-one]",EC50,primary human T-cells [1],72.2 nM
same,Emax,primary human T-cells [2],121%
same,EC50,primary human T-cells [2],49.1 nM
"CC1(c2nnc(-c3cc4c(cc3F)S(=O)(=O)C[C@H](N)C(=O)N4Cc3ccc(Cl)cc3)o2)CNC1 [Example 102, (3R)-3-amino-5-[(4-chlorophenyl)methyl]-8-fluoro-7-[5-(3-methylazetidin-3-yl)-1,3,4-oxadiazol-2-yl]-1,1-dioxo-2,3-dihydro-1λ^6,5-benzothiazepin-4-one]",EC50,primary human T-cells [1],> 10000 nM
same,Emax,primary human T-cells [2],65%
same,EC50,primary human T-cells [2],7690 nM
"CC(C#N)c1nnc(-c2cc3c(cc2F)S(=O)(=O)C[C@H](N)C(=O)N3Cc2ccc(Cl)cc2)o1 (stereo partly drawn) [Example 103, 2-[5-[(3R)-3-amino-5-[(4-chlorophenyl)methyl]-8-fluoro-1,1,4-trioxo-2,3-dihydro-1λ^6,5-benzothiazepin-7-yl]-1,3,4-oxadiazol-2-yl]propanenitrile]",EC50,primary human T-cells [1],583 nM
same,Emax,primary human T-cells [2],102%
same,EC50,primary human T-cells [2],213 nM
"CC(C)(C#N)c1nnc(-c2cc3c(cc2F)S(=O)(=O)C[C@H](N)C(=O)N3Cc2ccc(Cl)cc2)o1 [Example 104, 2-methyl-2-[5-[(3R)-3-amino-5-[(4-chlorophenyl)methyl]-8-fluoro-1,1,4-trioxo-2,3-dihydro-1λ^6,5-benzothiazepin-7-yl]-1,3,4-oxadiazol-2-yl]propanenitrile]",EC50,primary human T-cells [1],277 nM
same,Emax,primary human T-cells [2],112%
same,EC50,primary human T-cells [2],150 nM
"N[C@H]1CS(=O)(=O)c2cc(F)c(-c3nnc(C4CNCCC4(F)F)o3)cc2N(Cc2ccc(Cl)cc2)C1=O (stereo partly drawn) [Example 105, (3R)-3-amino-5-[(4-chlorophenyl)methyl]-7-[5-(4,4-difluoro-3-piperidyl)-1,3,4-oxadiazol-2-yl]-8-fluoro-1,1-dioxo-2,3-dihydro-1λ^6,5-benzothiazepin-4-one]",EC50,primary human T-cells [1],1170 nM
same,Emax,primary human T-cells [2],31%
same,EC50,primary human T-cells [2],4160 nM
"Cc1ccc(-c2nnc(-c3cc4c(cc3F)S(=O)(=O)C[C@H](N)C(=O)N4Cc3ccc(Cl)cc3)o2)cc1 [Example 106, (3R)-3-amino-5-[(4-chlorophenyl)methyl]-8-fluoro-1,1-dioxo-7-[5-(p-tolyl)-1,3,4-oxadiazol-2-yl]-2,3-dihydro-1λ^6,5-benzothiazepin-4-one]",EC50,primary human T-cells [1],784 nM
same,Emax,primary human T-cells [2],111%
same,EC50,primary human T-cells [2],254 nM
"Cc1cccc(-c2nnc(-c3cc4c(cc3F)S(=O)(=O)C[C@H](N)C(=O)N4Cc3ccc(Cl)cc3)o2)c1 [Example 107, (3R)-3-amino-5-[(4-chlorophenyl)methyl]-8-fluoro-7-[5-(m-tolyl)-1,3,4-oxadiazol-2-yl]-1,1-dioxo-2,3-dihydro-1λ^6,5-benzothiazepin-4-one]",EC50,primary human T-cells [1],188 nM
same,Emax,primary human T-cells [2],134%
same,EC50,primary human T-cells [2],955 nM
"N[C@H]1CS(=O)(=O)c2cc(F)c(-c3nnc(-c4ccccc4F)o3)cc2N(Cc2ccc(Cl)cc2)C1=O [Example 108, (3R)-3-amino-5-[(4-chlorophenyl)methyl]-8-fluoro-7-[5-(2-fluorophenyl)-1,3,4-oxadiazol-2-yl]-1,1-dioxo-2,3-dihydro-1λ^6,5-benzothiazepin-4-one]",EC50,primary human T-cells [1],498 nM
same,Emax,primary human T-cells [2],117%
same,EC50,primary human T-cells [2],1530 nM
"Cc1nc(-c2nnc(-c3cc4c(cc3F)S(=O)(=O)C[C@H](N)C(=O)N4Cc3ccc(Cl)cc3)o2)no1 [Example 109, (3R)-3-amino-5-[(4-chlorophenyl)methyl]-8-fluoro-7-[5-(5-methyl-1,2,4-oxadiazol-3-yl)-1,3,4-oxadiazol-2-yl]-1,1-dioxo-2,3-dihydro-1λ^6,5-benzothiazepin-4-one]",EC50,primary human T-cells [1],1500 nM
same,Emax,primary human T-cells [2],86%
same,EC50,primary human T-cells [2],1740 nM
"N[C@H]1CS(=O)(=O)c2cc(F)c(-c3nnc(C4CC5(CCOC5)C4)o3)cc2N(Cc2ccc(Cl)cc2)C1=O (stereo partly drawn) [Example 110, (3R)-3-amino-5-[(4-chlorophenyl)methyl]-8-fluoro-7-[5-(6-oxaspiro[3.4]octan-2-yl)-1,3,4-oxadiazol-2-yl]-1,1-dioxo-2,3-dihydro-1λ^6,5-benzothiazepin-4-one]",EC50,primary human T-cells [1],232 nM
same,Emax,primary human T-cells [2],131%
same,EC50,primary human T-cells [2],125 nM
"CC(C)(CN)c1nnc(-c2cc3c(cc2F)S(=O)(=O)C[C@H](N)C(=O)N3Cc2ccc(Cl)cc2)o1 [Example 111, (3R)-3-amino-7-[5-(2-amino-1,1-dimethyl-ethyl)-1,3,4-oxadiazol-2-yl]-5-[(4-chlorophenyl)methyl]-8-fluoro-1,1-dioxo-2,3-dihydro-1λ^6,5-benzothiazepin-4-one]",EC50,primary human T-cells [1],3130 nM
same,Emax,primary human T-cells [2],97%
same,EC50,primary human T-cells [2],556 nM
"N[C@H]1CS(=O)(=O)c2cc(F)c(-c3nnc(C4(C(F)F)CNC4)o3)cc2N(Cc2ccc(Cl)cc2)C1=O [Example 112, (3R)-3-amino-5-[(4-chlorophenyl)methyl]-7-[5-[3-(difluoromethyl)azetidin-3-yl]-1,3,4-oxadiazol-2-yl]-8-fluoro-1,1-dioxo-2,3-dihydro-1λ^6,5-benzothiazepin-4-one]",EC50,primary human T-cells [1],3230 nM
same,Emax,primary human T-cells [2],124%
same,EC50,primary human T-cells [2],1050 nM
"CC1(c2nnc(-c3cc4c(cc3F)S(=O)(=O)C[C@H](N)C(=O)N4Cc3ccc(Cl)cc3)o2)CC1 [Example 113, (3R)-3-amino-5-[(4-chlorophenyl)methyl]-8-fluoro-7-[5-(1-methylcyclopropyl)-1,3,4-oxadiazol-2-yl]-1,1-dioxo-2,3-dihydro-1λ^6,5-benzothiazepin-4-one]",EC50,primary human T-cells [1],100 nM
same,Emax,primary human T-cells [2],106%
same,EC50,primary human T-cells [2],107 nM
"CC(C)N(C)C(=O)c1nnc(-c2cc3c(cc2F)S(=O)(=O)C[C@H](N)C(=O)N3Cc2ccc(Cl)cc2)o1 [Example 114, N-isopropyl-N-methyl-5-[(3R)-3-amino-5-[(4-chlorophenyl)methyl]-8-fluoro-1,1,4-trioxo-2,3-dihydro-1λ^6,5-benzothiazepin-7-yl]-1,3,4-oxadiazole-2-carboxamide]",EC50,primary human T-cells [1],756 nM
same,Emax,primary human T-cells [2],65%
same,EC50,primary human T-cells [2],> 10000 nM
"CC(CO)(CCl)c1nnc(-c2cc3c(cc2F)S(=O)(=O)C[C@H](N)C(=O)N3Cc2ccc(Cl)cc2)o1 (stereo partly drawn) [Example 115, (3R)-3-amino-7-[5-[1-(chloromethyl)-2-hydroxy-1-methyl-ethyl]-1,3,4-oxadiazol-2-yl]-5-[(4-chlorophenyl)methyl]-8-fluoro-1,1-dioxo-2,3-dihydro-1λ^6,5-benzothiazepin-4-one]",EC50,primary human T-cells [1],2210 nM
same,Emax,primary human T-cells [2],127%
same,EC50,primary human T-cells [2],495 nM
"NC1CC2(C1)CC(c1nnc(-c3cc4c(cc3F)S(=O)(=O)C[C@H](N)C(=O)N4Cc3ccc(Cl)cc3)o1)C2 (stereo partly drawn) [Example 116, (3R)-3-amino-7-[5-(2-aminospiro[3.3]heptan-6-yl)-1,3,4-oxadiazol-2-yl]-5-[(4-chlorophenyl)methyl]-8-fluoro-1,1-dioxo-2,3-dihydro-1λ^6,5-benzothiazepin-4-one]",EC50,primary human T-cells [1],7340 nM
same,Emax,primary human T-cells [2],84%
same,EC50,primary human T-cells [2],4640 nM
"N[C@H]1CS(=O)(=O)c2cc(F)c(-c3nnc(C(=O)N4CCC(F)(F)C4)o3)cc2N(Cc2ccc(Cl)cc2)C1=O [Example 117, (3R)-3-amino-5-[(4-chlorophenyl)methyl]-7-[5-(3,3-difluoropyrrolidine-1-carbonyl)-1,3,4-oxadiazol-2-yl]-8-fluoro-1,1-dioxo-2,3-dihydro-1λ^6,5-benzothiazepin-4-one]",EC50,primary human T-cells [1],3570 nM
same,Emax,primary human T-cells [2],68%
same,EC50,primary human T-cells [2],5020 nM

# Reference: patent US20240368150A1 (Hoffmann-La Roche Inc., priority 2021, published 2024)
